Assay results taken from patent US20150031102A1, “METHODS AND COMPOSITIONS FOR ENHANCED PRODUCTION OF BUTANOL BY CLOSTRIDIA” (Butrolix LLC, priority 2012, published 2015).
Marks after values point to notes of the source that are not given here.

Tested on: C. acetobutylicum
Assay: Continuous culture, 2.5 L, dilution rate 0.01 per hour, 20 days (butanol, residual glucose, optical density, pH, yield, productivity)
Assay type: cell-based, Clostridium acetobutylicum
Conditions: for Optical density (600 nm): 50 nM BP110517 and its control; for Productivity / Yield / Butanol: 50 nM peptide, Table 53; for Butanol: average ± SD of triplicate samples; for Average Butanol / Average Glucose: Treated (50 nM)
Protocol: Lastly, 2.5 L continuous culture studies were conducted using the optimum peptide treatment level that was determined by the sequential batch transfer experiments. An untreated and a peptide-treated culture were grown in parallel, identical vessels with identical dilution rates for 20 days. The continuous cultures were initiated by inoculating 2.25 L of sterile medium in each culture vessel using 250 mL of peptide-treated and untreated batch cultures that had been grown for 24 hours. The batch cultures used as inoculum were the third of sequential batch transfer cultures, which made inoculation of the continuous cultures the fourth sequential transfer. After inoculation, the continuous cultures were grown for 24 hours before beginning to feed fresh medium at a rate of 0.01 volumes per hour. Triplicate samples were taken from each continuous culture every 24 hours. Optical density of the replicates was measured and culture supernatants were recovered following centrifugation and analyzed later for butanol and residual glucose concentrations. The analyses were used to calculate yield and productivity of the cultures.
Clostridium acetobutylicum strain ATCC 824 was used in all experiments and the growth medium used for sequential batch transfer, time course, and continuous culture experiments contained yeast extract, casamino acids, L-cysteine, L-asparagine, phosphate buffer, trace minerals, and 6% glucose. What are believed to be quorum-sensing peptides that were used in the experiments were chemically synthesized peptides SEQ ID NO: 143 (amino acid sequence: SYPGWSW) and SEQ ID NO: 144 (amino acid sequence: ILILISG). Routine growth of the bacteria as well as the sequential batch and time course experiments were conducted in a Form a Scientific Model 1029 anaerobic gas chamber at 32° C. Continuous cultures were performed at 32° C. using duplicate New Brunswick Scientific BioFlo 3000 apparati with a dilution rate of 0.01 volume per hour, 75 rpm agitation, and nitrogen gas sparging. Optical density of culture samples was measured at 600 nm in a Beckman DU 600 series spectrophotometer and glucose was analyzed using a YSI Model 2700 Select Biochemistry Analyzer with internal glucose calibration. Butanol concentrations were determined by measuring experimental and standard samples using a Varian Saturn 3 Gas Chromatograph/Mass Spectrometer and calculating butanol concentrations using standard curves.
Data from continuous cultures using a 6% glucose medium in vessels with a working volume of 2.5 L run at a dilution rate of 0.01 per hour. Two vessels were run in parallel, one of which was treated with 50 nM of peptide SEQ ID NO: 143 and the other was untreated. The vessels were sparged continuously with nitrogen gas to maintain anaerobic conditions and were agitated at 75 rpm. On Day 0, the vessels were inoculated with a 1/10 volume (250 mL) of overnight cultures that were either treated with peptide or untreated, and that were the third transfer of the cultures, which made inoculation of the continuous cultures the fourth transfer. Triplicate samples were collected aseptically from each vessel immediately after inoculation and every 24 hours thereafter. The cultures were allowed to grow for 24 hours prior to beginning to feed fresh medium, and were maintained for 20 days each, without pH control. The optical density of each sample was measured immediately at 600 nm, the samples were centrifuged to remove cells, and the cell-free supernatants were frozen for later analysis. A representative experiment is shown in FIG. 19 and Tables 34 and 35.
Using the optimum peptide treatment level that was determined by the sequential batch transfer experiments, 2.5 L continuous culture studies were conducted. An untreated and a peptide-treated culture were grown in parallel, identical vessels using the same dilution rates for 20 days for each of the peptides BP110517 and BP1106213. […]

[1] = 50 nM BP110517, last five days of culture
[2] = 24 hour period preceding day 10
[3] = 24 hour period preceding day 11
[4] = 24 hour period preceding day 12
[5] = 24 hour period preceding day 13
[6] = 24 hour period preceding day 14
[7] = 24 hour period preceding day 15
[8] = 24 hour period preceding day 16
[9] = 24 hour period preceding day 17
[10] = 24 hour period preceding day 18
[11] = 24 hour period preceding day 19
[12] = 24 hour period preceding day 20

SYPGWSW [peptide SEQ ID NO: 143]
Butanol content compared with the control (50 nM BP110517, between days 5 and 9): significantly more butanol than the control
Butanol content compared with the control [1]: significantly greater than the control
Butanol level lower than earlier in the culture period [1]: roughly 75%
Optical density (600 nm) (after day 13, recovered after day 17): less than 0.500
Optical density (600 nm) (first 9 days): around 2.0
Productivity (24 hour period preceding day 1): 0.53 g Butanol/L-h
Yield (24 hour period preceding day 1): 0.19 g Butanol/g Glucose
Productivity (24 hour period preceding day 2): −0.17 g Butanol/L-h
Yield (24 hour period preceding day 2): −0.28 g Butanol/g Glucose
Productivity (24 hour period preceding day 3): 0.07 g Butanol/L-h
Yield (24 hour period preceding day 3): 0.11 g Butanol/g Glucose
Productivity (24 hour period preceding day 4): 0.29 g Butanol/L-h
Yield (24 hour period preceding day 4): 0.46 g Butanol/g Glucose
Productivity (24 hour period preceding day 5): 0.24 g Butanol/L-h
Yield (24 hour period preceding day 5): 0.39 g Butanol/g Glucose
Productivity (24 hour period preceding day 6): 0.07 g Butanol/L-h
Yield (24 hour period preceding day 6): 0.11 g Butanol/g Glucose
Productivity (24 hour period preceding day 7): 0.14 g Butanol/L-h
Yield (24 hour period preceding day 7): 0.23 g Butanol/g Glucose
Productivity (24 hour period preceding day 8): 0.06 g Butanol/L-h
Yield (24 hour period preceding day 8): 0.10 g Butanol/g Glucose
Productivity (24 hour period preceding day 9): 0.07 g Butanol/L-h
Yield (24 hour period preceding day 9): 0.11 g Butanol/g Glucose
Productivity [2]: 0.00 g Butanol/L-h
Yield [2]: 0.01 g Butanol/g Glucose
Productivity [3]: 0.20 g Butanol/L-h
Yield [3]: 0.33 g Butanol/g Glucose
Productivity [4]: 0.02 g Butanol/L-h
Yield [4]: 0.04 g Butanol/g Glucose
Productivity [5]: −0.11 g Butanol/L-h
Yield [5]: −0.18 g Butanol/g Glucose
Productivity [6]: 0.00 g Butanol/L-h
Yield [6]: 0.00 g Butanol/g Glucose
Productivity [7]: 0.03 g Butanol/L-h
Yield [7]: 0.05 g Butanol/g Glucose
Productivity [8]: 0.11 g Butanol/L-h
Yield [8]: 0.17 g Butanol/g Glucose
Productivity [9]: −0.01 g Butanol/L-h
Yield [9]: −0.02 g Butanol/g Glucose
Productivity [10]: 0.01 g Butanol/L-h
Yield [10]: 0.01 g Butanol/g Glucose
Productivity [11]: 0.06 g Butanol/L-h
Yield [11]: 0.09 g Butanol/g Glucose
Productivity [12]: 0.01 g Butanol/L-h
Yield [12]: 0.01 g Butanol/g Glucose
Butanol (day 0): 0.9 ± 0.0 g/L
Butanol (day 1): 12.8 ± 4.4 g/L
Butanol (day 2): 5.5 ± 0.7 g/L
Butanol (day 3): 5.8 ± 1.7 g/L
Butanol (day 4): 11.2 ± 5.3 g/L
Butanol (day 5): 14.2 ± 0.3^c g/L
Butanol (day 6): 12.3 ± 0.6^c g/L
Butanol (day 7): 12.6 ± 0.0^c g/L
Butanol (day 8): 11.0 ± 0.4 g/L
Butanol (day 9): 9.9 ± 0.3^c g/L
Butanol (day 10): 7.6 ± 0.3 g/L
Butanol (day 11): 10.6 ± 0.7 g/L
Butanol (day 12): 8.5 ± 2.8 g/L
Butanol (day 13): 3.6 ± 0.2 g/L
Butanol (day 14): 2.7 ± 0.4 g/L
Butanol (day 15): 2.8 ± 0.6 g/L
Butanol (day 16): 4.7 ± 0.1^c g/L
Butanol (day 17): 3.3 ± 0.2^c g/L
Butanol (day 18): 2.7 ± 0.0^c g/L
Butanol (day 19): 3.4 ± 0.1^c g/L
Butanol (day 20): 2.7 ± 0.2^c g/L
Effect on butanol yield and productivity (BP110517, continuous cultures (summary of findings)): increased butanol yield and productivity
Average Butanol (day 0): 0.91 g/L
Average Glucose (day 0): 66.1 g/L
Average Butanol (day 1): 12.81 g/L
Average Glucose (day 1): 28.2 g/L
Average Butanol (day 2): 5.54 g/L
Average Glucose (day 2): 3.3 g/L
Average Butanol (day 3): 5.78 g/L
Average Glucose (day 3): 3.1 g/L
Average Butanol (day 4): 11.22 g/L
Average Glucose (day 4): 2.4 g/L
Average Butanol (day 5): 14.19 g/L
Average Glucose (day 5): 0.0 g/L
Average Butanol (day 6): 12.27 g/L
Average Glucose (day 6): 0.0 g/L
Average Butanol (day 7): 12.64 g/L
Average Glucose (day 7): 0.4 g/L
Average Butanol (day 8): 10.95 g/L
Average Glucose (day 8): 0.0 g/L
Average Butanol (day 9): 9.89 g/L
Average Glucose (day 9): 2.3 g/L
Average Butanol (day 10): 7.55 g/L
Average Glucose (day 10): 13.4 g/L
Average Butanol (day 11): 10.55 g/L
Average Glucose (day 11): 6.1 g/L
Average Butanol (day 12): 8.46 g/L
Average Glucose (day 12): 0.0 g/L
Average Butanol (day 13): 3.63 g/L
Average Glucose (day 13): 2.0 g/L
Average Butanol (day 14): 2.73 g/L
Average Glucose (day 14): 14.2 g/L
Average Butanol (day 15): 2.82 g/L
Average Glucose (day 15): 23.8 g/L
Average Butanol (day 16): 4.71 g/L
Average Glucose (day 16): 29.2 g/L
Average Butanol (day 17): 3.32 g/L
Average Glucose (day 17): 30.4 g/L
Average Butanol (day 18): 2.68 g/L
Average Glucose (day 18): 40.1 g/L
Average Butanol (day 19): 3.41 g/L
Average Glucose (day 19): 33.8 g/L
Average Butanol (day 20): 2.69 g/L
Average Glucose (day 20): 40.3 g/L
